Assay results taken from PubChem BioAssay AID2060493 (Molecular Pharmacology Branch, DTP, NCI, 2025).

Test system: 616215-338-R-J1-PDC tumor spheroids, viability
Test: Anticancer human tumor 616215-338-R-J1-PDC patient-derived colon adenocarcinoma cell line growth inhibition [GQUAD]
Details: spheroids with HUVEC and MSC; for IC50: curve of first compound; for viability, T/C: stronger effect = lower value
In short: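 Tumor cells were grown as complex spheroids with HUVEC endothelial cells and mesenchymal stem cells as stroma. G-quadruplex stabilizers were combined with targeted agents over half-log dilutions from near the clinical Cmax, or from 10 microM.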

[1] = second compound 0.0316 µM, first compound 0.0316 µM
[2] = second compound 0.0316 µM, first compound 0.316 µM
[3] = second compound 0.1 µM, first compound 0.0316 µM
[4] = second compound 0.1 µM, first compound 0.316 µM
[5] = second compound 0.316 µM, first compound 0.0316 µM
[6] = second compound 0.316 µM, first compound 0.316 µM
[7] = second compound 1 µM, first compound 0.0316 µM
[8] = second compound 1 µM, first compound 0.316 µM
[9] = second compound 3.16 µM, first compound 0.0316 µM
[10] = second compound 3.16 µM, first compound 0.316 µM
[11] = second compound 10 µM, first compound 0.0316 µM
[12] = second compound 10 µM, first compound 0.316 µM
[13] = second compound 0.0316 µM, first compound 0.000999 µM
[14] = second compound 0.0316 µM, first compound 0.00316 µM
[15] = second compound 0.0316 µM, first compound 0.00999 µM
[16] = second compound 0.0316 µM, first compound 0.0999 µM
[17] = second compound 0.1 µM, first compound 0.000999 µM
[18] = second compound 0.1 µM, first compound 0.00316 µM
[19] = second compound 0.1 µM, first compound 0.00999 µM
[20] = second compound 0.1 µM, first compound 0.0999 µM
[21] = second compound 0.316 µM, first compound 0.000999 µM
[22] = second compound 0.316 µM, first compound 0.00316 µM
[23] = second compound 0.316 µM, first compound 0.00999 µM
[24] = second compound 0.316 µM, first compound 0.0999 µM
[25] = second compound 1 µM, first compound 0.000999 µM
[26] = second compound 1 µM, first compound 0.00316 µM
[27] = second compound 1 µM, first compound 0.00999 µM
[28] = second compound 1 µM, first compound 0.0999 µM
[29] = second compound 3.16 µM, first compound 0.000999 µM
[30] = second compound 3.16 µM, first compound 0.00316 µM
[31] = second compound 3.16 µM, first compound 0.00999 µM
[32] = second compound 3.16 µM, first compound 0.0999 µM
[33] = second compound 10 µM, first compound 0.000999 µM
[34] = second compound 10 µM, first compound 0.00316 µM
[35] = second compound 10 µM, first compound 0.00999 µM
[36] = second compound 10 µM, first compound 0.0999 µM
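Note: spheroids exposed to agents for 7 days before readout.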
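Throughout, for viability, T/C: percent viability relative to DMSO vehicle control wells taken as 100%.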

`Cc1cccc(N(C)C(=O)C2C(O)CCN2c2nc(C)cc(C(F)(F)F)c2C#N)c1` (stereo unspecified) + Cc1[nH]c2ccc(F)cc2c1-c1nc2c3cccnc3c3ncccc3c2[nH]1 gave an IC50 (second compound 0.0316 µM) greater than 10000 nM, an IC50 (second compound 0.1 µM) greater than 10000 nM and an IC50 (second compound 0.316 µM) greater than 10000 nM. It also gave an IC50 (second compound 1 µM) greater than 10000 nM, an IC50 (second compound 3.16 µM) greater than 10000 nM and an IC50 (second compound 10 µM) greater than 10000 nM. The viability, T/C [1] was 92.8%, the viability, T/C (second compound 0.0316 µM, first compound 0.1 µM) was 102% and the viability, T/C [2] was 93.7%. It also gave a viability, T/C (second compound 0.0316 µM, first compound 1 µM) of 87.6%, a viability, T/C (second compound 0.0316 µM, first compound 3.16 µM) of 101% and a viability, T/C (second compound 0.0316 µM, first compound 10 µM) of 104%. The viability, T/C [3] was 99.4%, the viability, T/C (second compound 0.1 µM, first compound 0.1 µM) was 93.8% and the viability, T/C [4] was 99.1%. It also gave a viability, T/C (second compound 0.1 µM, first compound 1 µM) of 104%, a viability, T/C (second compound 0.1 µM, first compound 3.16 µM) of 99.6% and a viability, T/C (second compound 0.1 µM, first compound 10 µM) of 95.5%. The viability, T/C [5] was 91%, the viability, T/C (second compound 0.316 µM, first compound 0.1 µM) was 92.1% and the viability, T/C [6] was 99.4%. It also gave a viability, T/C (second compound 0.316 µM, first compound 1 µM) of 100%, a viability, T/C (second compound 0.316 µM, first compound 3.16 µM) of 97.6% and a viability, T/C (second compound 0.316 µM, first compound 10 µM) of 96.6%. For the same compound, the viability, T/C [7] was 103%, the viability, T/C (second compound 1 µM, first compound 0.1 µM) was 92% and the viability, T/C [8] was 96.7%. The viability, T/C (second compound 1 µM, first compound 1 µM) was 93.9%, the viability, T/C (second compound 1 µM, first compound 3.16 µM) was 105% and the viability, T/C (second compound 1 µM, first compound 10 µM) was 103%. It also gave a viability, T/C [9] of 94.4%, a viability, T/C (second compound 3.16 µM, first compound 0.1 µM) of 87% and a viability, T/C [10] of 96.5%. The viability, T/C (second compound 3.16 µM, first compound 1 µM) was 91.6%, the viability, T/C (second compound 3.16 µM, first compound 3.16 µM) was 104% and the viability, T/C (second compound 3.16 µM, first compound 10 µM) was 107%. It also gave a viability, T/C [11] of 108%, a viability, T/C (second compound 10 µM, first compound 0.1 µM) of 94.4% and a viability, T/C [12] of 96.2%. The viability, T/C (second compound 10 µM, first compound 1 µM) was 88%, the viability, T/C (second compound 10 µM, first compound 3.16 µM) was 107% and the viability, T/C (second compound 10 µM, first compound 10 µM) was 86.5%.
With `CC[C@@]1(O)C(=O)OCc2c1cc1n(c2=O)Cc2cc3c(CN(C)C)c(O)ccc3nc2-1` + Cc1cnc(CNC(=O)c2c(=O)c3ccc(N4CCCN(C)CC4)nc3n3c2sc2ccccc23)cn1 the IC50 (second compound 0.0316 µM) was 274 nM, the IC50 (second compound 0.1 µM) was 142 nM and the IC50 (second compound 0.316 µM) was less than 0.999 nM. It also gave an IC50 (second compound 1 µM) of less than 0.999 nM, an IC50 (second compound 3.16 µM) of less than 0.999 nM and an IC50 (second compound 10 µM) of less than 0.999 nM. For the same compound, the viability, T/C [13] was 116%, the viability, T/C [14] was 102% and the viability, T/C [15] was 92.5%. The viability, T/C [1] was 94.9%, the viability, T/C [16] was 87% and the viability, T/C [2] was 43.7%. The viability, T/C [17] was 81.5%, the viability, T/C [18] was 68.1% and the viability, T/C [19] was 64.2%. The viability, T/C [3] was 74.8%, the viability, T/C [20] was 54.1% and the viability, T/C [4] was 35.4%. The viability, T/C [21] was 38.5%, the viability, T/C [22] was 45.3% and the viability, T/C [23] was 39.2%. It also gave a viability, T/C [5] of 40.5%, a viability, T/C [24] of 53.4% and a viability, T/C [6] of 40.2%. It also gave a viability, T/C [25] of 36.9%, a viability, T/C [26] of 38.4% and a viability, T/C [27] of 32.4%. The viability, T/C [7] was 27.7%, the viability, T/C [28] was 24.9% and the viability, T/C [8] was 25.3%. The viability, T/C [29] was 37.1%, the viability, T/C [30] was 36.5% and the viability, T/C [31] was 31.6%. It also gave a viability, T/C [9] of 34.2%, a viability, T/C [32] of 29.3% and a viability, T/C [10] of 18.5%. For the same compound, the viability, T/C [33] was 31.9%, the viability, T/C [34] was 25% and the viability, T/C [35] was 42.2%. It also gave a viability, T/C [11] of 24.2%, a viability, T/C [36] of 25.3% and a viability, T/C [12] of 16.1%.
Work on `CC[C@@]1(O)C(=O)OCc2c1cc1n(c2=O)Cc2cc3c(CN(C)C)c(O)ccc3nc2-1` + CN(C)c1ccc(Nc2c3ccc(NC(=O)CCN4CCCC4)cc3nc3cc(NC(=O)CCN4CCCC4)ccc23)cc1 yielded an IC50 (second compound 0.0316 µM) of 282 nM, an IC50 (second compound 0.1 µM) of 251 nM and an IC50 (second compound 0.316 µM) of 230 nM. It also gave an IC50 (second compound 1 µM) of 272 nM, an IC50 (second compound 3.16 µM) of 263 nM and an IC50 (second compound 10 µM) of 183 nM. The viability, T/C [13] was 97.5%, the viability, T/C [14] was 98.9% and the viability, T/C [15] was 98%. The viability, T/C [1] was 105%, the viability, T/C [16] was 87.9% and the viability, T/C [2] was 45.9%. It also gave a viability, T/C [17] of 93.5%, a viability, T/C [18] of 101% and a viability, T/C [19] of 101%. The viability, T/C [3] was 101%, the viability, T/C [20] was 87.2% and the viability, T/C [4] was 40.5%. The viability, T/C [21] was 113%, the viability, T/C [22] was 94.5% and the viability, T/C [23] was 98.5%. The viability, T/C [5] was 105%, the viability, T/C [24] was 85.2% and the viability, T/C [6] was 36.4%. It also gave a viability, T/C [25] of 105%, a viability, T/C [26] of 100% and a viability, T/C [27] of 96.2%. The viability, T/C [7] was 101%, the viability, T/C [28] was 87.4% and the viability, T/C [8] was 44.1%. It also gave a viability, T/C [29] of 97.9%, a viability, T/C [30] of 86.8% and a viability, T/C [31] of 96.7%. It also gave a viability, T/C [9] of 95.2%, a viability, T/C [32] of 93.1% and a viability, T/C [10] of 41.8%. It also gave a viability, T/C [33] of 90.2%, a viability, T/C [34] of 91% and a viability, T/C [35] of 95.8%. For the same compound, the viability, T/C [11] was 85.3%, the viability, T/C [36] was 74.5% and the viability, T/C [12] was 28.1%.
